These results are taken from patent US20130202733A1, “ISOMALTULOSE FOR USE IN ENHANCING MENTAL PERFORMANCE” (SUEDZUCKER AKTIENGESELLSCHAFT MANNHEIM/OCHSENFURT, priority 2010, published 2013).

For assay [1] the following is noted: glucose standard = 100; cited from earlier work.
In assay [2] the test system is healthy school children. The experiment in a line: Episodic memory test (Recall of Objects, British Ability Scales) after isomaltulose or glucose sweetened meal. It is filed as in vivo, human. The method, then: (§1) Seventy-five healthy school children consumed in crossover design two meals designed to differ in their glycemic load (GL; Amount of carbohydrate×Glycemic Index, GI, of food items; GI of isomaltulose=32, GI of glucose=100) while being similar in macro-nutrient content. The cognitive test block takes 45 minutes and was once assessed in the early postprandial phase and once in the late post-prandial phase (>150 minutes) after meal ingestion. Every child participated in four blocks of testing (FIG. 2). • Early test block after meal A • Late test block after meal A • Early test block after meal B • Late test block after meal B
(§2) On each cognitive test block parallel versions of the cognitive tests were administered.
(§3) Both meals offered a similar intake of energy (1385 KJ) and macro-nutrients (84.4% carbohydrates, 10.6% protein and 5.0% fat) while differing in glycemic load (GL; Amount of carbohydrate×Glycemic Index of food items), that is whether glucose was released slowly or i quickly into the blood stream. The meals were composed as followed (% of total energy): • High GL meal: Cornflakes+milk (35.3%), yoghurt+fruit preparation (14.2%), glucose (50.5%). • Low GL meal: Cornflakes+milk (35.3%), yoghurt+fruit preparation (14.2%), isomaltulose (50.5%).
The approach was based on the Recall of Objects test of the British Ability Scales (Elliott, British Ability Scales, 1996, National foundation of Educational Research) and children had to recall up to 60 objects.

The subject of assay [3] is healthy school children. The experiment in a line: Attention test (paradigm of Shakow, signal detection, error rate) after isomaltulose or glucose sweetened meal. The format is in vivo, human. On the procedure: as §1, §2, §3
The paradigm of Shakow was used to assess attention with error rate as outcome (Shakow, Arch general Psychiat, 1962, 6, 1-17). […]

For assay [4] the following is noted: after ingestion of 50 g; cited from earlier work.
A further assay has as its system subjects. To be noted: at 150 minutes following ingestion; cited from earlier work.
The next assay deals with healthy adults. Conditions: milk-based drink; cited from earlier work.

“Also recorded” adds a separate entry of the source.

With `OC[C@H]1O[C@@](CO)(O[C@H]2O[C@H](CO)[C@@H](O)[C@H](O)[C@H]2O)[C@@H](O)[C@@H]1O` [sucrose, reference compound], the “glycemic index (GI)” value in assay [1] is given as 65.
For the compound `OC[C@H]1O[C@H](OC[C@H]2OC(O)(CO)[C@@H](O)[C@@H]2O)[C@H](O)[C@@H](O)[C@@H]1O` (some centres unmarked) [isomaltulose], the “episodic memory, isomaltulose meal versus glucose meal” value in the assay on healthy school children [2] (early postprandial phase (early cognitive test block)) is recorded as “did not differ”. In addition, the “episodic memory, isomaltulose meal versus glucose meal” value with healthy school children [2] (late postprandial phase, >150 minutes after meal consumption) is reported as “significantly better episodic memories”. For the same compound, the “episodic memory, late postprandial phase compared to early postprandial phase” value in the assay on healthy school children [2] (within the same meal) was “not significantly different”. Also, the “attention error rate, isomaltulose meal versus glucose meal” value with healthy school children [3] (early postprandial phase) is reported as “nearly the same attention error rate; also recorded: nearly the same error rates”. In addition, the “attention performance (error rate), isomaltulose meal versus glucose meal” value in the assay with healthy school children [3] (late postprandial phase, >150 minutes after meal ingestion) was “performed better by tendency; also recorded: trend for better attention performance”. Further, the “glycemic index (GI)” value in assay [1] was 32. In addition, in assay [4], the “blood glucose or glycemic response curve versus sucrose” value is “much lower” and the “time after ingestion at which blood glucose approximates the initial levels” value is given as “about 2.5 hours”. Moreover, in the assay on subjects, the “cognitive performance tests versus sucrose-containing drinks” value is “performed significantly better”. Besides, the “effect on cognitive performance” value in the assay on healthy adults is given as “does not affect cognitive performance”.
